Source: patent publication US20210252151A1, “METHOD FOR OPTICAL OPENING OF THE BLOOD-BRAIN BARRIER” (BOARD OF REGENTS, THE UNIVERSITY OF TEXAS SYSTEM, priority 2018, published 2021)

Tested on: BBB of C57BL/6 mice
Test: Delivery of functional molecules to the brain after BBB transient opening
Format: in vivo, mouse
Conditions: after TJ-targeting AuNP and ps laser (25 mJ/cm^2, 1 pulse)
Protocol: To measure the penetration of functional molecule, the anti-cancer drug, doxorubicin, and antibody (human IgG) instead of Evans blue dye were inject intravenously. To test endogenous mouse IgG extravasation, the secondary antibody was incubated with mouse brain tissue sections, followed by fluorescent signal detection.

- crossing of the BBB (extravasation into brain): obvious Dox across the BBB
Compound: COc1cccc2c1C(=O)c1c(O)c3c(c(O)c1C2=O)C[C@@](O)(C(=O)CO)C[C@@H]3O[C@H]1C[C@H](N)[C@H](O)[C@H](C)O1 [Dox, doxorubicin]
